In patent publication US5637582A, “Peripheral circulation improving agent” (priority 1992, dated 1997):

How the values were obtained:
femoral artery = assay: Femoral arterial blood flow, hind leg cooling model of Raynaud's disease (Experimental Example 5); assay type: in vivo, male SD rat
Procedure: (Lower limbs peripheral circulation disorder model due to hind leg cooling: Model of Raynaud's disease)
A catheter was inserted into left common carotid artery of a male SD rat (one group consisting of 5 rats) under anesthesia, and the arterial blood pressure was measured with a standard pressure transducer (manufactured by Nihon Koden. TP-200T, trade name) through a catheter attached to the artery. After isolating the left femoral artery from the peripheral connective tissue, a flow probe (HDP 10-20R: F 1.0 mm) of a Doppler blood flow meter (manufactured by Crystal Biotec Co., PD20, trade name) was attached thereto and was connected to the Doppler blood flow meter to measure the artery blood flow. After the operation, at the time that the state became stable, the left hind leg was exposed to a perfused solution at 10° C. to decrease the femoral arterial blood flow. After 30 minutes, 1 ml/kg of a 0.9% NaCl solution or 300 μg/kg of the test compound A was intravenously administered and the state was observed. In the case of Beraprost Na, continuous injection in an amount of […] was carried out after 30 minutes from cooling. The compounds to be used were each dissolved in a 0.9% NaCl solution.
The present model is disclosed, for example, in Nishio et al, "Effect of Beraprost Sodium on Peripheral Circulatory Disturbances Induced by Various Stimuli", Arzneim.-Forsch./Drug Res., 39 (II), Nr. 10 (1989), pp. 1229-1234. Note particularly the section "2.4. Sphygmometry in rat hind paw", at page 1230.

vertebral artery = assay: Change of vertebral arterial blood flow in anesthetized dogs (Experimental Example 4); conditions: 100 μg/kg i.v.
Procedure: Each test compound was intravenously administered to adult dogs (one group consisting of 2 or 4 dogs) under anesthesia and artificial respiration at a dose of 100 μg/kg body weight. Femoral arterial blood flow, vertebral arterial blood flow and arterial blood pressure were measured 1, 3, 5, 10, 20 and 30 minutes after the administration. The femoral arterial blood flow and vertebral arterial blood flow were measured with an electromagnetic blood flowmeter (manufactured by Nihon Koden, MFV-2100, trade name) through a flow probe attached to the femoral artery or vertebral artery. The arterial blood pressure was measured with a pressure transducer (manufactured by Millar, MICRO-TIP, Model SPC-350) through a catheter attached to the brachial artery.
Changes of the femoral arterial blood flow, vertebral arterial blood flow and arterial blood pressure were estimated by comparing the values measured before and after the administration of the test compound.

SMILES: CC(=O)O[C@@H]1C(=O)N(CCN(C)C)c2ccc(C)cc2S[C@@H]1c1ccc(C)cc1 [Compound A]
- Femoral Arterial Blood Flow change (femoral artery; 0 min (before cooling and administration; 30 min = 0)): 1.364 Δ ml/min
- Femoral Arterial Blood Flow change (femoral artery; 40 min, given at 30 min: A 300 μg/kg i.v., J 0.3 μg/kg/ml continuous injection): 0.072 Δ ml/min
- Femoral Arterial Blood Flow change (femoral artery; 50 min, given at 30 min: A 300 μg/kg i.v., J 0.3 μg/kg/ml continuous injection): 0.276 Δ ml/min
- Femoral Arterial Blood Flow change (femoral artery; 60 min, given at 30 min: A 300 μg/kg i.v., J 0.3 μg/kg/ml continuous injection): 0.416 Δ ml/min
- Femoral Arterial Blood Flow change (femoral artery; 70 min, given at 30 min: A 300 μg/kg i.v., J 0.3 μg/kg/ml continuous injection): 0.452 Δ ml/min
- Femoral Arterial Blood Flow change (femoral artery; 80 min, given at 30 min: A 300 μg/kg i.v., J 0.3 μg/kg/ml continuous injection): 0.452 Δ ml/min
- Femoral Arterial Blood Flow change (femoral artery; 90 min, given at 30 min: A 300 μg/kg i.v., J 0.3 μg/kg/ml continuous injection): 0.496 Δ ml/min
- Vertebral Arterial Blood Flow change (side effects) (vertebral artery; 1 min): 0.3 Δ ml/min
- Vertebral Arterial Blood Flow change (side effects) (vertebral artery; 3 min): 0.0 Δ ml/min
- Vertebral Arterial Blood Flow change (side effects) (vertebral artery; 5 min): -0.5 Δ ml/min
- Vertebral Arterial Blood Flow change (side effects) (vertebral artery; 10 min): -1.5 Δ ml/min
- Vertebral Arterial Blood Flow change (side effects) (vertebral artery; 20 min): -2.8 Δ ml/min
- Vertebral Arterial Blood Flow change (side effects) (vertebral artery; 30 min): -2.5 Δ ml/min
- effect on vertebral arterial blood flow (vertebral artery; G and H: one minute after, in words): substantially no effect
